According to patent US20260085280A1, “ADAPTATION AND PROCESS OPTIMIZATION OF MICROORGANISMS FOR GROWTH IN HEMICELLULOSIC DERIVED CARBOHYDRATES” (MARA RENEWABLES CORPORATION, priority 2018, published 2026):

Key:
[1] = tested on: 7-7, Gxs1 7-7, and 51-7 strains; experiment: impact of xylitol concentration on glucose and xylose consumption; assay type: cell-based, Thraustochytrium species (ONC-T18); conditions: FIGS. 2A-2D and Table 4
Description: The impact of xylitol concentration on glucose and xylose consumption was determined using 7-7, Gxs1 7-7, and 51-7 strains.

Gxs1 7-7 = experiment: xylose depletion flask assay, medium spiked with increasing concentrations of xylitol; assay type: cell-based, Thraustochytrium species (ONC-T18); conditions: 20 g/L xylose and 8 g/L glucose; for Biomass / Xylose used / Xylose used (%): after 144 hours
Description: The impact of xylitol concentration on glucose and xylose consumption was determined using 7-7, Gxs1 7-7, and 51-7 strains. […] In xylose depletion flask assays, Gxs1 7-7 was used with medium containing 20 g/L xylose and 8 g/L glucose and spiked with increasing concentrations of xylitol as shown in Table 4. The values in Table 4 are the total amount of biomass produced and xylose used after 144 hours. The glucose used amounts are shown at 48 hours.

SMILES: OC[C@@H](O)[C@H](O)[C@@H](O)CO [Xylitol, xylitol]
- xylitol concentration to be kept in order to avoid growth inhibition [1]: lower than 1 g/L
- Glucose used (%) @48 hr (Gxs1 7-7; 1 g L^−1 xylitol): 99.9%
- Glucose used (g) @48 hr (Gxs1 7-7; 1 g L^−1 xylitol): 9.04 g
- Biomass (Gxs1 7-7; 1 g L^−1 xylitol): 7.225 g/L
- Xylose used (Gxs1 7-7; 1 g L^−1 xylitol): 11.03 g
- Xylose used (%) (Gxs1 7-7; 1 g L^−1 xylitol): 56.2%
- Glucose used (%) @48 hr (Gxs1 7-7; 5 g L^−1 xylitol): 43.7%
- Glucose used (g) @48 hr (Gxs1 7-7; 5 g L^−1 xylitol): 3.99 g
- Biomass (Gxs1 7-7; 5 g L^−1 xylitol): 6.683 g/L
- Xylose used (Gxs1 7-7; 5 g L^−1 xylitol): 5.06 g
- Xylose used (%) (Gxs1 7-7; 5 g L^−1 xylitol): 25.5%
- Glucose used (%) @48 hr (Gxs1 7-7; 10 g L^−1 xylitol): 18.6%
- Glucose used (g) @48 hr (Gxs1 7-7; 10 g L^−1 xylitol): 1.66 g
- Biomass (Gxs1 7-7; 10 g L^−1 xylitol): 6.425 g/L
- Xylose used (Gxs1 7-7; 10 g L^−1 xylitol): 4.24 g
- Xylose used (%) (Gxs1 7-7; 10 g L^−1 xylitol): 22.0%
- Glucose used (%) @48 hr (Gxs1 7-7; 15 g L^−1 xylitol): 12.8%
- Glucose used (g) @48 hr (Gxs1 7-7; 15 g L^−1 xylitol): 1.13 g
- Biomass (Gxs1 7-7; 15 g L^−1 xylitol): 6.592 g/L
- Xylose used (Gxs1 7-7; 15 g L^−1 xylitol): 3.67 g
- Xylose used (%) (Gxs1 7-7; 15 g L^−1 xylitol): 19.3%
